Test results: patent US8629102B2, “3-hydroxyisothiazole 1-oxide derivatives” (Mochida Pharmaceutical Co., Ltd., priority 2011, dated 2014)

What follows are molecules tested against T1, GPR40 of human origin (Homo sapiens, UniProt O14842) (assay: Agonist action on GPR40 of human origin (intracellular Ca2+ change)). Conditions: CHO cell strain stably expressing GPR40 of human origin; change in Ca2+ concentration, fluorescent calcium indicator.
T1 construct: expressed in transfected cells
Assay type: cell-based
Outline: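 CHO cells stably expressing human GPR40, cultured overnight, then loaded 1 h with Calcium 4 dye plus probenecid in HEPES-buffered HBSS. Compound added in 20 mM HEPES-HBSS; intracellular Ca2+ change read by fluorescence, EC50 from dose-response of fluorescence change.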

T1 sequence (O14842 whole entry): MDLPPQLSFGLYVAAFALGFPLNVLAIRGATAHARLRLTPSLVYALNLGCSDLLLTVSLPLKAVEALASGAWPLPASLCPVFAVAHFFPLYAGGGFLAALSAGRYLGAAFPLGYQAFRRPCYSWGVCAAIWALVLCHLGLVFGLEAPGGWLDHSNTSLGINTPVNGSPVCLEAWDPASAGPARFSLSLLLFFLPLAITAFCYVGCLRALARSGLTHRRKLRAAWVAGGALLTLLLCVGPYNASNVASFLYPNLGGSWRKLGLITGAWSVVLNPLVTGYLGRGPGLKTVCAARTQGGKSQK

Compared with `CN1CC2(CCN(Cc3ccc(COc4ccc(-c5cc(O)n[s+]5[O-])cc4)cc3)CC2)c2ccccc21` (stereo not shown) [Example 124, 3-hydroxy-5-(4-((4-((1-methylspiro[indolin-3,4′-piperidin]-1′-yl)methyl)benzyl)oxy)phenyl)isothiazole 1-oxide], `[O-][s+]1nc(O)cc1-c1ccc(OCc2ccc(Oc3ccccc3)cc2)cc1` (stereo not shown) [Example 159, 3-hydroxy-5-(4-((4-phenoxybenzyl)oxy)phenyl)isothiazole 1-oxide] is lower in EC50: 300 to 3000 nM for the first, < 300 nM for the second. The second is the more potent here.

`N#Cc1ccc(Oc2cccc(COc3ccc(-c4cc(O)n[s+]4[O-])cc3)c2)cc1` (stereo not shown) [Example 125, 4-(3-((4-(3-hydroxy-1-oxidoisothiazol-5-yl)phenoxy)methyl)phenoxy)benzonitrile] and `[O-][s+]1nc(O)cc1-c1ccc(OCCc2ccc(Oc3ccccc3)cc2)cc1` (stereo not shown) [Example 162, 3-hydroxy-5-(4-(4-phenoxyphenethoxy)phenyl)isothiazole 1-oxide] cannot be ordered by EC50: < 300 nM for the first, < 300 nM for the second.

First: Cc1ncccc1Oc1cccc2c1CC[C@H]2Oc1ccc(-c2cc(O)n[s+]2[O-])cc1 (stereo partly drawn) [Example 126, 3-hydroxy-5-(4-(((R)-4-((2-methylpyridin-3-yl)oxy)-2,3-dihydro-1H-inden-1-yl)oxy)phenyl)isothiazole 1-oxide]
Second: COc1cccnc1Oc1cccc2c1CC[C@H]2Oc1ccc(-c2cc(O)n[s+]2[O-])cc1 (stereo partly drawn) [Example 132, 3-hydroxy-5-(4-(((R)-4-((3-methoxypyridin-2-yl)oxy)-2,3-dihydro-1H-inden-1-yl)oxy)phenyl)isothiazole 1-oxide]
The EC50 of the first is lower: < 300 nM for the first, 300 to 3000 nM for the second. The first is the more potent here.

`COc1cncc(Oc2cccc3c2CC[C@H]3Oc2ccc(-c3cc(O)n[s+]3[O-])cc2)c1` (stereo partly drawn) [Example 127, 3-hydroxy-5-(4-(((R)-4-((3-methoxypyridin-5-yl)oxy)-2,3-dihydro-1H-inden-1-yl)oxy)phenyl)isothiazole 1-oxide] and `Cc1cc(Oc2cccc3c2CC[C@H]3Oc2ccc(-c3cc(O)n[s+]3[O-])cc2)ccn1` (stereo partly drawn) [Example 135, 3-hydroxy-5-(4-(((R)-4-((2-methylpyridin-4-yl)oxy)-2,3-dihydro-1H-inden-1-yl)oxy)phenyl)isothiazole 1-oxide] cannot be ordered by EC50: < 300 nM for the first, < 300 nM for the second.

`NC(=O)c1cccc(Oc2cccc3c2CC[C@H]3Oc2ccc(-c3cc(O)n[s+]3[O-])cc2)c1` (stereo partly drawn) [Example 128, 3-(((1R)-1-(4-(3-hydroxy-1-oxidoisothiazol-5-yl)phenoxy)-2,3-dihydro-1H-inden-4-yl)oxy)benzamide] and `NC(=O)c1ccc(Oc2cccc3c2CC[C@H]3Oc2ccc(-c3cc(O)n[s+]3[O-])cc2)cc1` (stereo partly drawn) [Example 129, 4-(((1R)-1-(4-(3-hydroxy-1-oxidoisothiazol-5-yl)phenoxy)-2,3-dihydro-1H-inden-4-yl)oxy)benzamide] cannot be ordered by EC50: < 300 nM for the first, < 300 nM for the second.

`Cc1cccc(Oc2cccc3c2CC[C@H]3Oc2ccc(-c3cc(O)n[s+]3[O-])cc2)n1` (stereo partly drawn) [Example 130, 3-hydroxy-5-(4-(((R)-4-((6-methylpyridin-2-yl)oxy)-2,3-dihydro-1H-inden-1-yl)oxy)phenyl)isothiazole 1-oxide] and `COc1cccc(Oc2cccc3c2CC[C@H]3Oc2ccc(-c3cc(O)n[s+]3[O-])cc2)n1` (stereo partly drawn) [Example 149, 3-hydroxy-5-(4-(((R)-4-((6-methoxypyridin-2-yl)oxy)-2,3-dihydro-1H-inden-1-yl)oxy)phenyl)isothiazole 1-oxide] cannot be ordered by EC50: < 300 nM for the first, < 300 nM for the second.

`N#Cc1ccc(Oc2cccc3c2CC[C@H]3Oc2ccc(-c3cc(O)n[s+]3[O-])cc2)cc1N1CCOC1=O` (stereo partly drawn) [Example 131, 4-(((R)-1-(4-(3-hydroxy-1-oxidoisothiazol-5-yl)phenoxy)-2,3-dihydro-1H-inden-4-yl)oxy)-2-(2-oxooxazolidin-3-yl)benzonitrile] and `O=C(c1ccc(Oc2cccc3c2CC[C@H]3Oc2ccc(-c3cc(O)n[s+]3[O-])cc2)cc1)N1CCCC1` (stereo partly drawn) [Example 147, (4-(((R)-1-(4-(3-hydroxy-1-oxidoisothiazol-5-yl)phenoxy)-2,3-dihydro-1H-inden-4-yl)oxy)phenyl)(pyrrolidine-1-yl)methanone] cannot be ordered by EC50: < 300 nM for the first, < 300 nM for the second.

`Cc1ccnc(Oc2cccc3c2CC[C@H]3Oc2ccc(-c3cc(O)n[s+]3[O-])cc2)c1` (stereo partly drawn) [Example 133, 3-hydroxy-5-(4-(((R)-4-((4-methylpyridin-2-yl)oxy)-2,3-dihydro-1H-inden-1-yl)oxy)phenyl)isothiazole 1-oxide] and `Cc1ccc(Oc2cccc3c2CC[C@H]3Oc2ccc(-c3cc(O)n[s+]3[O-])cc2)nc1` (stereo partly drawn) [Example 134, 3-hydroxy-5-(4-(((R)-4-((5-methylpyridin-2-yl)oxy)-2,3-dihydro-1H-inden-1-yl)oxy)phenyl)isothiazole 1-oxide] cannot be ordered by EC50: < 300 nM for the first, < 300 nM for the second.

`CNC(=O)c1ccc(Oc2cccc3c2CC[C@H]3Oc2ccc(-c3cc(O)n[s+]3[O-])cc2)cc1` (stereo partly drawn) [Example 136, 4-(((1R)-1-(4-(3-hydroxy-1-oxidoisothiazol-5-yl)phenoxy)-2,3-dihydro-1H-inden-4-yl)oxy)-N-methylbenzamide] and `CN(C)C(=O)c1ccc(Oc2cccc3c2CC[C@H]3Oc2ccc(-c3cc(O)n[s+]3[O-])cc2)cc1` (stereo partly drawn) [Example 137, 4-(((R)-1-(4-(3-hydroxy-1-oxidoisothiazol-5-yl)phenoxy)-2,3-dihydro-1H-inden-4-yl)oxy)-N,N-dimethylbenzamide] cannot be ordered by EC50: < 300 nM for the first, < 300 nM for the second.

`N#Cc1ccc(Oc2cccc3c2OCC3Oc2ccc(-c3cc(O)n[s+]3[O-])cc2)cc1` (stereo not shown) [Example 138, 4-((3-(4-(3-hydroxy-1-oxidoisothiazol-5-yl)phenoxy)-2,3-dihydrobenzofuran-7-yl)oxy)benzonitrile] and `Cc1cccc(Oc2cccc3c2OCC3Oc2ccc(-c3cc(O)n[s+]3[O-])cc2)c1` (stereo not shown) [Example 155, 3-hydroxy-5-(4-((7-(m-tolyloxy)-2,3-dihydrobenzofuran-3-yl)oxy)phenyl)isothiazole 1-oxide] cannot be ordered by EC50: < 300 nM for the first, < 300 nM for the second.

`COc1ccc(Oc2cccc3c2OCC3Oc2ccc(-c3cc(O)n[s+]3[O-])cc2)cn1` (stereo not shown) [Example 140, 3-hydroxy-5-(4-((7-((6-methoxypyridin-3-yl)oxy)-2,3-dihydrobenzofuran-3-yl)oxy)phenyl)isothiazole 1-oxide] and `Cc1nc(OCCC(C)(C)O)ccc1Oc1cccc2c1OCC2Oc1ccc(-c2cc(O)n[s+]2[O-])cc1` (stereo not shown) [Example 141, 3-hydroxy-5-(4-((7-((6-(3-hydroxy-3-methylbutoxy)-2-methylpyridin-3-yl)oxy)-2,3-dihydrobenzofuran-3-yl)oxy)phenyl)isothiazole 1-oxide] cannot be ordered by EC50: < 300 nM for the first, < 300 nM for the second.

`COCCN(C)C(=O)c1ccc(Oc2cccc3c2CC[C@H]3Oc2ccc(-c3cc(O)n[s+]3[O-])cc2)cc1` (stereo partly drawn) [Example 146, 4-(((R)-1-(4-(3-hydroxy-1-oxidoisothiazol-5-yl)phenoxy)-2,3-dihydro-1H-inden-4-yl)oxy)-N-(2-methoxyethyl)-N-methylbenzamide] and `N#Cc1ccc(-c2cccc3c2CC[C@H]3Oc2ccc(-c3cc(O)n[s+]3[O-])cc2)cc1` (stereo partly drawn) [Example 156, 4-((1R)-1-(4-(3-hydroxy-1-oxidoisothiazol-5-yl)phenoxy)-2,3-dihydro-1H-inden-4-yl)benzonitrile] cannot be ordered by EC50: < 300 nM for the first, < 300 nM for the second.

First: N#Cc1ccc(-c2cccc3c2CC[C@H]3Oc2ccc(-c3cc(O)n[s+]3[O-])cc2)cn1 (stereo partly drawn) [Example 157, 5-((1R)-1-(4-(3-hydroxy-1-oxidoisothiazol-5-yl)phenoxy)-2,3-dihydro-1H-inden-4-yl)picolinonitrile]
Second: [O-][s+]1nc(O)cc1-c1ccc(O[C@@H]2CCc3c2cccc3N2CCCc3ccccc32)cc1 (stereo partly drawn) [Example 158, 5-(4-(((R)-4-(3,4-dihydroquinoline-1(2H)-yl)-2,3-dihydro-1H-inden-1-yl)oxy)phenyl)-3-hydroxyisothiazole 1-oxide]
The EC50 of the first is higher: 300 to 3000 nM for the first, < 300 nM for the second.

Compared with `[O-][s+]1nc(O)cc1-c1ccc(OCCc2ccccc2Oc2ccccc2)cc1` (stereo not shown) [Example 161, 3-hydroxy-5-(4-(2-phenoxyphenethoxy)phenyl)isothiazole 1-oxide], `[O-][s+]1nc(O)cc1-c1cccc(OCCc2cccc(Oc3ccccc3)c2)c1` (stereo not shown) [Example 163, 3-hydroxy-5-(3-(3-phenoxyphenethoxy)phenyl)isothiazole 1-oxide] is higher in EC50: < 300 nM for the first, 300 to 3000 nM for the second. The first is the more potent here.
